# Results taken from PMC7768359, “Synthesis of Platinum(II) Complexes with Some 1-Methylnitropyrazoles and In Vitro Research on Their Cytotoxic Activity” (Pharmaceuticals, 2020).
# Assays:
# [1] = test system: BALB/3T3 (murine embryonic fibroblast); experiment: In vitro cytotoxicity, sulforhodamine B assay, normal cells; assay type: cell-based; conditions: BALB/3T3 normal cells, normoxia, 72 h
# Protocol: (§1) Determination of the cytotoxic activity of compounds tested was performed separately in the normoxia or hypoxia conditions to reveal their potentially bioreductive properties. The experiment was carried out on three human cancer cell lines: MCF-7 breast, ES-2 ovarian and A549 lung adenocarcinoma as well as normal murine embryonic fibroblast BALB/3T3 cell line. In order to facilitate the preparation of solutions of the tested compounds, their initial solutions for dilution were made by dissolving the compounds in acetone.
# (§2) All cell lines were exposed to each compound tested at four different concentrations for 72 h. […] Additionally, all cell lines were exposed to acetone (Avantor Performance Materials, Gliwice, Poland) (the solvent used for tested compounds) at concentrations corresponding to those present in tested compounds’ dilutions.
# After 72 h of cell incubation with the compounds tested, the sulforhodamine B (SRB) assay was performed as described by Shekan et al. with minor modifications. The cells were fixed in situ by adding 50 µL per well of cold 50% trichloroacetic acid (Avantor Performance Materials, Gliwice, Poland) and were incubated at 4 °C for one hour. Following that, wells were washed five times with water and air dried. Next, 50 µL of 0.4% solution of sulforhodamine B (Sigma-Aldrich, Steinheim, Germany) in 1% acetic acid (Avantor Performance Materials, Gliwice, Poland) were added to each well and plates were incubated at room temperature for 0.5 h. After incubation time, the unbound dye was removed by washing plates five times with 1% acetic acid, whereas stains bound to cells was solubilized with 10 mM Tris base (Sigma-Aldrich, Steinheim, Germany). The absorbance of each solution was read by the Multiskan RC photometer (Labsystems Diagnostics Oy, Vantaa, Finland) at a 540 nm wavelength. […] IC50 values were calculated for each experiment on the basis of four different concentrations using Cheburator software, as described by Nevozhay. The tested compounds at each concentration were tested in triplicates in a single experiment and each experiment was repeated at least three times independently.
# [2] = test system: A549 (lung adenocarcinoma); experiment: In vitro cytotoxicity, sulforhodamine B assay; assay type: cell-based, human; conditions: 72 h
# Protocol: as §1, with “acetone. For this purpose, it was not possible to use more polar aprotic solvents (DMSO, DMF) due to the rapid isomerization of some of the tested complexes under their influence.” for “acetone.”
# (§3) All the cell lines were cultured at 37 °C in a humid atmosphere containing 5% CO2. Additionally, in the case of cytotoxicity assay with hypoxic conditions, the cells (MCF-7, ES-2, A549) were maintained at 37 °C in a humid atmosphere containing 5% CO2 and 1% O2 during the entire experiment.
# as §2, with “Twenty-four hours before adding the tested compounds, all cell lines were seeded in 96-well plates ([…] AG & Co, Nümbrecht Germany) in an appropriate media with 10^4 cells per well. All” for “All”
# (§4) After 72 h of cell incubation with the compounds tested, the sulforhodamine B (SRB) assay was performed as described by Shekan et al. with minor modifications. The cells were fixed in situ by adding 50 µL per well of cold 50% trichloroacetic acid (Avantor Performance Materials, Gliwice, Poland) and were incubated at 4 °C for one hour. Following that, wells were washed five times with water and air dried. Next, 50 µL of 0.4% solution of sulforhodamine B (Sigma-Aldrich, Steinheim, Germany) in 1% acetic acid (Avantor Performance Materials, Gliwice, Poland) were added to each well and plates were incubated at room temperature for 0.5 h. After incubation time, the unbound dye was removed by washing plates five times with 1% acetic acid, whereas stains bound to cells was solubilized with 10 mM Tris base (Sigma-Aldrich, Steinheim, Germany). The absorbance of each solution was read by the Multiskan RC photometer (Labsystems Diagnostics Oy, Vantaa, Finland) at a 540 nm wavelength. Results are presented as mean IC50 (concentration of the compound tested that inhibits cell proliferation by 50%) ± standard deviation. IC50 values were calculated for each experiment on the basis of four different concentrations using Cheburator software, as described by Nevozhay. The tested compounds at each concentration were tested in triplicates in a single experiment and each experiment was repeated at least three times independently.
# [3] = test system: ES-2 (ovarian adenocarcinoma); experiment: In vitro cytotoxicity, sulforhodamine B assay; assay type: cell-based, human; conditions: 72 h
# Protocol: as §1, with “acetone. For this purpose, it was not possible to use more polar aprotic solvents (DMSO, DMF) due to the rapid isomerization of some of the tested complexes under their influence.” for “acetone.”
# as §3
# as §2, with “Twenty-four hours before adding the tested compounds, all cell lines were seeded in 96-well plates ([…] AG & Co, Nümbrecht Germany) in an appropriate media with 10^4 cells per well. All” for “All”
# as §4
# [4] = test system: MCF-7 (breast adenocarcinoma); experiment: In vitro cytotoxicity, sulforhodamine B assay; assay type: cell-based, human; conditions: 72 h
# Protocol: as §1, with “acetone. For this purpose, it was not possible to use more polar aprotic solvents (DMSO, DMF) due to the rapid isomerization of some of the tested complexes under their influence.” for “acetone.”
# as §3
# as §2, with “Twenty-four hours before adding the tested compounds, all cell lines were seeded in 96-well plates ([…] AG & Co, Nümbrecht Germany) in an appropriate media with 10^4 cells per well. All” for “All”
# as §4
# MCF-7 cells = experiment: Total cellular platinum uptake (ICP OES); assay type: cell-based, human; conditions: MCF-7, 4 h exposure, 10 µM
# Protocol: It is necessary to strongly emphasize that the underlined values have a statistically significant lack of variance homogeneity (Fisher–Snedecor’s F-test, Fα/2) with respect to reference drug variance, so Aspin–Welch’s t-test was applied in these cases. […] For ionic compound 8, platinum uptake value was not determined due to Pt concentrations in the cell lysates being below the instrument detection limit (IDL = 10 μg/kg) specified by the manufacturer for the device used.
# Cultured MCF-7 cells were seeded at a density of 4 × 10^5 cells/well of culture medium on a 6-well plate (Corning, NY, USA) to a final volume of 2.5 mL. […] The wells without MCF-7 cells were filled with 1 mL of culture medium-containing compound tested to act as a reference for nonspecific platinum complex adsorption on the surface of the well. After incubation, all wells were washed twice with 2 mL of cold PBS, filled with 400 μL of hot (ca 90 °C) 65% nitric acid, and maintained to stand for 2 h. All wells were finally filled with 1600 μL of water and this solution was collected and analyzed using iCAP 7400 Duo ICP OES instrument (Thermo Fisher Scientific) using the plasma axial view (10 s) at λ = 265.945 nm. The amount of Pt per cell was calculated by subtracting the amount of Pt found in the blank well from the amount of Pt found in the cell-containing wells and normalized to the average number of cells per well. The mean and SD values were calculated on the basis of 4 measurements.
# [5] = logP by shake-flask method (n-octanol / 0.9% NaCl, Pt by ICP-OES); assay type: physicochemical; conditions: octanol/water, n = 4
# Protocol: An important factor for the pharmacokinetics and the cellular accumulation of the investigated complexes, their lipophilicity was determined by measuring octanol/water partition coefficients (logP) with the shake-flask method. The logP determination was carried out based on a previously described procedure, modified by us to obtain more accurate and repeatable results.
# Weighted amounts of the tested platinum complex were suspended by 10 min sonification in 0.9% NaCl water solution, which was previously saturated with n-octanol, and mixed by shaking for 1 h. A simultaneously similar procedure was performed using 5 mL of n-octanol pre-saturated with 0.9% NaCl. Afterward, both suspensions were mixed together, shaken for an additional 1 h, and centrifuged for 5 min. After phase separation and evaporation in vacuo of 1 mL of sample to dryness, the final concentration of Pt was determined by ICP-OES (λ = 265.945 nm) and the partition coefficients were calculated. For the analysis, all samples were dissolved 1:1000 in 2.5% HCl. Each measurement was repeated four times and the final logP was calculated as the arithmetic mean of the four values.
# [6] = design: method as in PMID 18777181; conditions: cited from earlier work
logP ± SD [5],Compound,IC50 ([1]; Mus musculus) [µM],"IC50 ± SD ([2]; A549, hypoxia (1% O2))","IC50 ± SD ([2]; A549, normoxia)","IC50 ± SD ([3]; ES-2, hypoxia (1% O2))","IC50 ± SD ([3]; ES-2, normoxia)","IC50 ± SD ([4]; MCF-7, hypoxia (1% O2))","IC50 ± SD ([4]; MCF-7, normoxia)",IC50 [1] [µM],"IC50 ([2]; A549, hypoxia (1% O2)) [µM]","IC50 ([2]; A549, normoxia) [µM]","IC50 ([3]; ES-2, hypoxia (1% O2)) [µM]","IC50 ([3]; ES-2, normoxia) [µM]","IC50 ([4]; MCF-7, hypoxia (1% O2)) [µM]","IC50 ([4]; MCF-7, normoxia) [µM]",Total Cellular Platinum Uptake in MCF-7 Cells (± SD) (MCF-7 cells),half-time of the reaction with GSH [6] [min]
,"Cn1cc([N+](=O)[O-])cn1 [1-Methyl-4-nitropyrazole, 1-methyl-4-nitropyrazole, reference compound]",> 100,inactive,inactive,inactive,inactive,inactive,inactive,,,,,,,,,
,"N.N.[Cl][Pt][Cl] [Cisplatin, cisplatin, reference compound]",,,,,,,,8.67 ± 2.6,23.9 ± 9.3,9.8 ± 1.2,13.7 ± 5.7,8.6 ± 2.6,14.7 ± 5.8,12.6 ± 2.6,74 ± 20 ng Pt/10^6 Cells,
−0.58 ± 0.13,"COC(=O)c1c([N+](=O)[O-])c[n+]([Pt@SP2-2]([Cl])([Cl])[n+]2cc([N+](=O)[O-])c(C(=O)OC)n2C)n1C [Compound 5, cis-dichloridobis(methyl 1-methyl-4-nitropyrazole-5-carboxylate)platinum(II)]",,inactive,inactive,inactive,,inactive,,> 100,,,,38.1 ± 9.2,,49.1 ± 30.1,39 ± 3 ng Pt/10^6 Cells,
−0.37 ± 0.03,"COC(=O)c1c([N+](=O)[O-])c[n+]([Pt@SP3-2]([Cl])([Cl])[n+]2cc([N+](=O)[O-])c(C(=O)OC)n2C)n1C [Compound 6, trans-dichloridobis(methyl 1-methyl-4-nitropyrazole-5-carboxylate)platinum(II)]",,inactive,,,,,,> 100,,58.2 ± 7.6,99.8 ± 37.9,36.3 ± 8.6,86.8 ± 19,23.6 ± 8.6,47 ± 17 ng Pt/10^6 Cells,
−0.69 ± 0.04,"Cc1c([N+](=O)[O-])cn(C)[n+]1[Pt@SP2-2]([Cl])([Cl])[n+]1c(C)c([N+](=O)[O-])cn1C [Compound 7, cis-dichloridobis(1,3-dimethyl-4-nitropyrazole)platinum(II)]",,inactive,,inactive,,inactive,,> 100,,93 ± 12.9,,68.9 ± 10,,58 ± 8.7,16 ± 7 ng Pt/10^6 Cells,
−1.22 ± 0.08,"COC(=O)c1c([N+](=O)[O-])cn(C)[n+]1[Pt-2]([Cl])([Cl])[Cl].[K+] [Compound 8, potassium trichlorido(3-carboxymethyl-1-methyl-4-nitropirazole)platinate(II)]",,inactive,inactive,inactive,,inactive,inactive,> 100,,,,48.5 ± 25.9,,,^† below IDL,
,N.N.[Cl][Pt+2][Cl] [transplatin],,,,,,,,,,,,,,,,4
